From patent publication US20050032708A1, “Modulation of physiological processes and agents useful for same” (priority 2001, published 2005)
“Also recorded” adds a separate entry of the source.

Tests used:
[1] = cited from earlier work
[2] = Body weights and daily water consumption of rats receiving NAC in drinking water for 14 days; format: in vivo
Method: (§1) Male Sprague Dawley rats (380-430 g) were obtained from Department of Pathology, University of Melbourne. On arrival rats were housed in pairs in a temperature-controlled (20-24° C.) colony room maintained on a 12 hr light-dark cycle (6 am-6 pm). Rats had continuous access to food and water (plain or treated) and were weighed on arrival and then daily from onset of experiment. Rats were allowed to adjust to the new environment for 3 days before starting the experiment.
(§2) This experiment consisted of 24 rats in total. Eight rats received plain drinking water (controls), 8 rats received 0.5% NAC (Sigma) in their drinking water (low dose) and 8 rats received 2% NAC in their drinking water (high dose). Drug treatment was administered for 14 consecutive days. Bottles were cleaned and fresh drug solution was made up on days 4, 8 and 11. Body weights and amount of drinking water consumed per box were measured on a daily basis. After 7 days of drug treatment, behavioural testing began and continued until day 14 of treatment.

Male Sprague Dawley rats = assay: Effect of amphetamine on locomotor activity of rats receiving NAC in drinking water; format: in vivo
Method: as §1, §2
Locomotor activity was assessed in 8 automated photo cell cages, data being collected in 5-min intervals. Animals were placed individually in cages and baseline activity was measured during the first 30 minutes. After 30 minutes rats received a subcutaneous injection of either saline (vehicle), 0.5 mg/kg or 5 mg/kg amphetamine and locomotor activity was measured for a further 90 minutes. Drug treatment and time of day of the experiment were both randomised (see table 1). Each rat received 3 locomotor sessions in total. A period of 3 days was allowed between locomotor experiments to ensure complete elimination of amphetamine.
Locomotor hyperactivity was obtained as total distance moved per 30 min, i.e. before injection and 0-30 min, 30-60 min and 60-90 min after injection. In order to account for slight variations in baseline activity, post-injection behaviour was expressed a change of baseline activity. Average data for rats receiving water, 0.5% NAC, or 2% NAC was compared using analysis of variance for repeated measures (ANOVA) using the Systat 9.0 software package.

humans = settings: cited from earlier work
[3] = 600-1200 mg/day for three weeks, Ziegler and Gries, 1997

## C[Se]CC[C@H](N)C(=O)O [Selenomethionione]
[1]; 200 ug, one per day
  Adverse effects of long-term dose: no known adverse effects

## O=C1O[C@H]([C@@H](O)CO)C(O)=C1O [Vitamin C]
[1]; 500 mg daily
  Elevation of plasma levels: 60%

## CC(=O)N[C@@H](CS)C(=O)O [NAC, N-acetyl cysteine]
[2]; 0.5% NAC in drinking water (low dose), 14 days of treatment, control rats 77-90 ml
  Average daily water consumption per box: 60 to 72 mL
[2]; 2% NAC in drinking water (high dose), 14 days
  Body weight over the treatment period compared with controls: marked decrease in body weight
Male Sprague Dawley rats; 0.5% NAC
  Interaction of treatment x time, 5 mg/kg of amphetamine, vs controls (significant or not): not
Male Sprague Dawley rats; 0.5% NAC in drinking water, F(1,14)=5.11, P=0.04
  Overall effect of 0.5 mg/kg of amphetamine on locomotor activity vs water controls: tended to be greater
Male Sprague Dawley rats; 0.5% or 2% NAC in drinking water, difference did not reach statistical significance
  Baseline locomotor activity before injection, averaged over three sessions, vs water controls: tended to be lower
Male Sprague Dawley rats; 2% NAC
  Duration of locomotor hyperactivity after 5 mg/kg of amphetamine: maintained longer than in controls; also recorded: prolonged effect
Male Sprague Dawley rats; 2% NAC in drinking water, F(1,13)=4.3, P=0.06
  Overall effect of 0.5 mg/kg of amphetamine on locomotor activity vs water controls: tended to be greater
Male Sprague Dawley rats; 2% NAC to drink, failed to reach overall statistical significance
  Overall effect of 5 mg/kg of amphetamine on locomotor activity vs controls: tended to be greater
Male Sprague Dawley rats; 2% NAC, F(2,28)=4.9, P=0.024
  Interaction of treatment x time, 5 mg/kg of amphetamine, vs controls: significant
Male Sprague Dawley rats; 30-60 min after injection, either NAC dose (0.5% or 2%), 0.5 mg/kg
  Maximal effect of 0.5 mg/kg of amphetamine on locomotor activity vs water controls: significantly greater; also recorded: greater maximal effect
humans; dose of 3 g/day (4 capsules, 2 bid)
  Plasma cystine levels: sustains elevated plasma cystine levels
humans; human, Louwerse et al., 1995
  Human dosing without adverse effects: up to 5 g/day

## Cc1c(C)c2c(c(C)c1O)CC[C@@](C)(CCC[C@H](C)CCC[C@H](C)CCCC(C)C)O2 [alpha-tocopherol]
[1]; 400 IU
  Adverse effects: without causing adverse effects
  CSF levels: sufficient to increase CSF levels
[1]; Bowry et al., 1995
  Doses that may cause coagulopathies and can be a source of radicals: higher than 2000 IU/day

## CC(N)Cc1ccccc1 (stereo not drawn) [amphetamine]
Male Sprague Dawley rats; 0.5 mg/kg of amphetamine, 90 min after injection
  Locomotor activity after subcutaneous injection of amphetamine: induced a behavioural hyperactivity
Male Sprague Dawley rats; 5 mg/kg of amphetamine, activity fell to low levels later in the 90 min observation period
  Locomotor activity after subcutaneous injection of amphetamine: initially induced marked behavioural hyperactivity

## O=C(O)CCCCC1CCSS1 (stereo not drawn) [Alpha-lipoic Acid]
[1]; [3]
  Symptoms of diabetic neuropathy: reproducibly demonstrated benefit
  Tolerability: tolerated with no adverse effects
